Results from patent publication US9359378B2, “Substituted oxazolo[3,4-a]pyrazines as pharmaceutcals” (BIOLAB SANUS FARMACÊUTICA LTDA., priority 2014, dated 2016).

Biological target: T1, PDE10A2 (Homo sapiens, UniProt Q9Y233)
T1 construct: host or cells: Sf9
Test: PDE10A2 enzyme inhibition (HTRF, cAMP substrate)
Assay type: biochemical
Conditions: human recombinant enzyme (Sf9); FIG. 14; test concentration not given
Text: The effects of the BL-230 and BL-236 compounds on the activity of the human enzymes PDE2A1, PDE3A, PDE4A1A, PDE4B1, PDE7A, PDE8A1, and PDE10A2 and PDE11A4 were quantified by measuring the production of adenosine 5′-monophosphate (5′AMP) from cyclic adenosine monophosphate (cAMP), with human recombinant enzyme expressed in Sf9 cells and the detection method was by using HTRF®.
The test compound, the reference compound or water (control) were mixed with the enzyme (the enzymes and their amounts used are described in Table 1) in a buffer containing 44.4 mM Tris-HCl, 5.28 mM MgCl2, 2.64 mM DTT and 0.044% Tween® 20 (pH 7.8). Then, the reaction was initiated by the addition of 40 nM of cAMP substrate and the mixture was incubated for 30 minutes at room temperature. For basal control measurements, the enzyme was omitted from the reaction mixture. The fluorescence acceptor (Dye2 labeled cAMP) and fluorescence donor (anti-cAMP antibody labeled with europium cryptate) were added in the presence of 1 mM IBMX. After 60 minutes, the fluorescence corresponding to the amount of transfer residual cAMP was measured at λex=337 nm, λem=620 nm and λem=665 nm using a microplate reader (RubyStar, BMG). The enzyme activity was determined by the signal division measured at 665 nm, by the measured signal at 620 nm (right). The results were expressed as a inhibition percentage of the control enzyme activity. […]

T1 sequence (Q9Y233 267-1055): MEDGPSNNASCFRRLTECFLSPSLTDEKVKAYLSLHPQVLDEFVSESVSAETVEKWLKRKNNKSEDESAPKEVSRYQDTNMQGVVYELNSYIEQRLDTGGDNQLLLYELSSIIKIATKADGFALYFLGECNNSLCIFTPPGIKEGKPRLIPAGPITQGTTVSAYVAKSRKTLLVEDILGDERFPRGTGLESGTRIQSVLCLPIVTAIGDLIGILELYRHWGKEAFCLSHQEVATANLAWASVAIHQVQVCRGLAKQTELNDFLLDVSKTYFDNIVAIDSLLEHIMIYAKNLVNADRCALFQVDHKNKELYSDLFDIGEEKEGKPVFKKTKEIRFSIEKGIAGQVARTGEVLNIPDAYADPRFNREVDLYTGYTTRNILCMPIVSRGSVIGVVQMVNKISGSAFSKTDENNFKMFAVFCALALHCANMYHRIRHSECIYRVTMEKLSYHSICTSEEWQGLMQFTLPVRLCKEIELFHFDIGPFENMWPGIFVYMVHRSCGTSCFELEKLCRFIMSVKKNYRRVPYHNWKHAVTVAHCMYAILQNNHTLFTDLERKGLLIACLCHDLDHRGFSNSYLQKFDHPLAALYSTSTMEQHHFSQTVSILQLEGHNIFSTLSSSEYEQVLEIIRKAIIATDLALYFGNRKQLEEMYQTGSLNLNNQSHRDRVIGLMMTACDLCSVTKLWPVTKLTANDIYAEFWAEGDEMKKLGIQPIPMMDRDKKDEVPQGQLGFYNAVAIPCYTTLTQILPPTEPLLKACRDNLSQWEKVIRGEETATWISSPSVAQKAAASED

inhibition of PDE10A2 enzyme activity: 35%
Compound: O=C1C2=C(c3c[nH]c4ccccc34)OC(c3ccc4c(c3)OCO4)N2C(=O)CN1CCO (stereo not shown) [BL-230, 3-(benzo[d][1,3]dioxol-5yl)-7-(2-hydroxyethyl)-1-(1H-indol-3-yl)-6,7-dihydro-3H-oxazolo[3,4-a]pyrazine-5,8-dione]
